Reference: ChEMBL document CHEMBL1201862, “PubChem BioAssay data set” (2004)
The source made the active and inactive calls.

Experiments:
[1] = molecular target: T1, Calpain-2 catalytic subunit (Sus scrofa, UniProt P43367); test: pig calpain II inhibitor potency, dose response, biochemical, fluorogenic peptide substrate (AID 1420); format: functional
T1 sequence (P43367 whole entry): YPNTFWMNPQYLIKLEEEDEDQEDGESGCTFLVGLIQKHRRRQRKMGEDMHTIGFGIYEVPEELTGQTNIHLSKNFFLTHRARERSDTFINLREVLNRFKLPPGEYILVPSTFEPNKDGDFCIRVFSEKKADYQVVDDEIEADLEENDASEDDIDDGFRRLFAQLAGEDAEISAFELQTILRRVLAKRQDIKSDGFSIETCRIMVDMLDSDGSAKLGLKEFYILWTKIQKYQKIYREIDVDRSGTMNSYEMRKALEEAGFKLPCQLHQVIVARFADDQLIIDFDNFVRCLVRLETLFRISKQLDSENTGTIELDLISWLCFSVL

Hexokinase-1 = molecular target: T2, Hexokinase-1 (Homo sapiens, UniProt P19367); test: hexokinase 1 activators, dose response, selectivity assay for HKDC1 activator project, biochemical (AID 504762); format: functional
T2 sequence (P19367 whole entry): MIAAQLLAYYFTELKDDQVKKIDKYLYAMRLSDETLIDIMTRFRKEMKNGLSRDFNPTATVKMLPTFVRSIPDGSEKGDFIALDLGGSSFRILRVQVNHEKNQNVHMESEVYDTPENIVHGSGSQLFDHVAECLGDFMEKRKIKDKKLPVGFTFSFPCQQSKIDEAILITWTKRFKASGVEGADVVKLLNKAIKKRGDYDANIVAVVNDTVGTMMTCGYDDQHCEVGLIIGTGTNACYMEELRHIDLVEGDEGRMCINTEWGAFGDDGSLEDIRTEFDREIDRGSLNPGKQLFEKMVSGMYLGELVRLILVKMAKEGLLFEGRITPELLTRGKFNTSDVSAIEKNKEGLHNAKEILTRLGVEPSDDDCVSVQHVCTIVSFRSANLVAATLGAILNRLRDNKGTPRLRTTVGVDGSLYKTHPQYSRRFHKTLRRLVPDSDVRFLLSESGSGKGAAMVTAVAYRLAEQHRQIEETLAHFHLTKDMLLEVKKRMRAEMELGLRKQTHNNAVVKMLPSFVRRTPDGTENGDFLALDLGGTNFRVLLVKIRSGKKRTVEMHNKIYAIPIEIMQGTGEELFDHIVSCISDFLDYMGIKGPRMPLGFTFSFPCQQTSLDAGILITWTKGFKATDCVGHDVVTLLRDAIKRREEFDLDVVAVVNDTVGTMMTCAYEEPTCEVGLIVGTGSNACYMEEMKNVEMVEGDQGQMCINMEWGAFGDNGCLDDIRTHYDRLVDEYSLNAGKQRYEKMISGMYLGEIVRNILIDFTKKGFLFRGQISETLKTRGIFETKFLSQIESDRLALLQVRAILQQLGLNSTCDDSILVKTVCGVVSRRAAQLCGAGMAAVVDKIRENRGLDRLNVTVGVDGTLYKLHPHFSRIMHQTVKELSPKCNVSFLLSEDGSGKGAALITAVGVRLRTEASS

Hexokinase HKDC1 = molecular target: T3, Hexokinase HKDC1 (Homo sapiens, UniProt Q2TB90); test: HKDC1 hexokinase activators, dose response, biochemical, W721R variant (AID 504730); format: functional
T3 sequence (Q2TB90 whole entry): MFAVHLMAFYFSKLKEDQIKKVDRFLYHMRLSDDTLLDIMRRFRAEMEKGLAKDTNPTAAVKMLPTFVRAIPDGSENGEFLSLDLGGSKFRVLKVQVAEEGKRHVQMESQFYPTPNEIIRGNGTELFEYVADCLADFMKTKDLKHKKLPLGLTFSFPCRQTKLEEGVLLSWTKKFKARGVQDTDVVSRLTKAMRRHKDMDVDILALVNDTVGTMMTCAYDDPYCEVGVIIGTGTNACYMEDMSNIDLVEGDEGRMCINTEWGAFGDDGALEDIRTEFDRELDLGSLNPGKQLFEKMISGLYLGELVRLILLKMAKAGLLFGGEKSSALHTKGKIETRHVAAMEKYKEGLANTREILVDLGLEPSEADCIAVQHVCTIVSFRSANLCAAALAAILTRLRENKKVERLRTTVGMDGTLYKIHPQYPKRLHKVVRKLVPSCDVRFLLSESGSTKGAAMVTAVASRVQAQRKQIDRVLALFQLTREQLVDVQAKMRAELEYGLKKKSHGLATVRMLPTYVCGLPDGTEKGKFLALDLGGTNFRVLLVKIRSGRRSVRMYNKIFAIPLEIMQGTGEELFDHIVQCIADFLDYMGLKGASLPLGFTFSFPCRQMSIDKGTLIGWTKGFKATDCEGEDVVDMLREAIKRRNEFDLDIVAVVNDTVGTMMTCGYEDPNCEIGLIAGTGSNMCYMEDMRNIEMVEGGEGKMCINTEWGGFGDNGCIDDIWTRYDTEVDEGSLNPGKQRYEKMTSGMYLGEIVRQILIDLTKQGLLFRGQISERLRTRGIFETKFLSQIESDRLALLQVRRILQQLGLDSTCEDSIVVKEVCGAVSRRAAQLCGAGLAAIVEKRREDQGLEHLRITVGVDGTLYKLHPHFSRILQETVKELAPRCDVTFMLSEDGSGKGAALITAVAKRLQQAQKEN

[2] = molecular target: T4, Lysosomal acid glucosylceramidase (Homo sapiens, UniProt P04062); test: Dose response cell-based high throughput screening assay to identify enhancers of beta-glucosidase activity. [Related pubchem assays: 784 ]; format: functional
T4 sequence (P04062 whole entry): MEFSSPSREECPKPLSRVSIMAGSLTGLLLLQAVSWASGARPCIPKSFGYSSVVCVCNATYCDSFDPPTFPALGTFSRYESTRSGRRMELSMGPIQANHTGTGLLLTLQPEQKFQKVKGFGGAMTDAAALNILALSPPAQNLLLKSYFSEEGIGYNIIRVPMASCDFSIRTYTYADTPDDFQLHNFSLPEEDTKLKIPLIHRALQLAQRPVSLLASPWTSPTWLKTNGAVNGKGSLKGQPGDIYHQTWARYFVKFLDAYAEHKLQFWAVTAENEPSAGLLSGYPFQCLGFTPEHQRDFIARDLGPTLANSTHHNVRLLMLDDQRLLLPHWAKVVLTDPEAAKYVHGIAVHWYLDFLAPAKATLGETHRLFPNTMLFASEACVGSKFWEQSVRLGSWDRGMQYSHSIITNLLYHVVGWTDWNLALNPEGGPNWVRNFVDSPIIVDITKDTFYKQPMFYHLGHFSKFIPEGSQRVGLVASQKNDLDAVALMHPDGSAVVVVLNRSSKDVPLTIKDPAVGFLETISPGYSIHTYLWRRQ

[3] = cytotoxicity in HEK-293T cells, dose response, cytotoxicity control for BCR NF-kB inhibitor project, luminescence, B-cell screen hits (AID 489021); format: functional, cell-based;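 also: HEK-293T cells carrying an NF-kB luciferase reporter; cells exposed to compound for about 14 hours before viability readout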
[4] = molecular target: G-protein coupled receptor 55 (Homo sapiens, UniProt Q9Y2T6); test: GPR55 agonists via beta-arrestin recruitment, primary screen, imaging, U2OS cells, beta-arrestin-GFP redistribution (AID 1961); format: functional
Ephrin type-A receptor 4 = Ephrin type-A receptor 4 (Mus musculus, UniProt Q03137); test: inhibitors of EphA4 binding to KYL peptide, primary screen, biochemical, colorimetric, mouse EphA4 (AID 689); format: functional
[5] = molecular target: E3 ubiquitin-protein ligase XIAP (Homo sapiens, UniProt P98170); test: Counter Screen using XIAP-Bir3 for Chemical Antagonists of Bir1/2 domains of IAP-family anti-apoptotic proteins. [Related pubchem assays (depositor defined):AID1018, AID1449, AID1514, AID1638, AID1749, AID1750, AID488957, AID488963]
Chain of E3 ubiquitin-protein ligase XIAP (P98170 whole entry): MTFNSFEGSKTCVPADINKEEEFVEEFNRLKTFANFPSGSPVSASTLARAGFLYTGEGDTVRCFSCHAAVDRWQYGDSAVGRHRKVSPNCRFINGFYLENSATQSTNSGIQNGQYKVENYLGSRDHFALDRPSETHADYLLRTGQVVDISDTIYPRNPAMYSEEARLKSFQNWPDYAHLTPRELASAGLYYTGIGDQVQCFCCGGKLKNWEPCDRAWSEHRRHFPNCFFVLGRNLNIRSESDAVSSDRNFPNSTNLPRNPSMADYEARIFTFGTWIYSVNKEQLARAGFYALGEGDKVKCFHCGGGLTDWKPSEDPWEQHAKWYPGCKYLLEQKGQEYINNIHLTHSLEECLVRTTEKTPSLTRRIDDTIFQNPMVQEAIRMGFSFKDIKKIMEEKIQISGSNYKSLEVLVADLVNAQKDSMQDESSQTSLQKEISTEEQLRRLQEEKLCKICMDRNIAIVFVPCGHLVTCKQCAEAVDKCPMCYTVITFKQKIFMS

Chain of Ephrin type-A receptor 4 (Q03137 whole entry): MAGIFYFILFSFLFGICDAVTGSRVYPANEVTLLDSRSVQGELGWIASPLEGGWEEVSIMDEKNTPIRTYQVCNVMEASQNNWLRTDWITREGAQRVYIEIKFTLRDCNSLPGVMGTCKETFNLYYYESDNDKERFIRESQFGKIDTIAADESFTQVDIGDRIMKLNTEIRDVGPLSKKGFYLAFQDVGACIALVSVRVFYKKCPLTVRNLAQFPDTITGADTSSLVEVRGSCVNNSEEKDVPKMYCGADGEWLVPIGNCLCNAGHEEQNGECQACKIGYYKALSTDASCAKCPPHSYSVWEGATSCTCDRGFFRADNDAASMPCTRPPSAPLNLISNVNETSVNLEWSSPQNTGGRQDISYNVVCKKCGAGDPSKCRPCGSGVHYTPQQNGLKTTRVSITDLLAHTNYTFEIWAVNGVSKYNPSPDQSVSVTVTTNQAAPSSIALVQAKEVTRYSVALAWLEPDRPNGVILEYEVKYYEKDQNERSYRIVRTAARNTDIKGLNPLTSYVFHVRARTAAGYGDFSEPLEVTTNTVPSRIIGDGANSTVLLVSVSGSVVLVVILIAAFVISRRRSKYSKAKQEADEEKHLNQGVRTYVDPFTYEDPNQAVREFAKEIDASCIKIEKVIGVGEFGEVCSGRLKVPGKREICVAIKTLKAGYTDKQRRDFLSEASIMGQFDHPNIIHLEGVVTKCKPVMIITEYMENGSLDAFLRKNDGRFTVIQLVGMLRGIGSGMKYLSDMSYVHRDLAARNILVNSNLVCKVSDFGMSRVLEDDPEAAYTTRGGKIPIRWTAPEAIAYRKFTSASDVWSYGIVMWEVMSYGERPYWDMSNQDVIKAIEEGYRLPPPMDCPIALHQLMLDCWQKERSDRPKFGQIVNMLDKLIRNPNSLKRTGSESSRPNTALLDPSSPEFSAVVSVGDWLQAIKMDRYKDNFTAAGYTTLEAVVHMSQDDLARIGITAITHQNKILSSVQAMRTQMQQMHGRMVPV
Chain of G-protein coupled receptor 55 (Q9Y2T6 whole entry): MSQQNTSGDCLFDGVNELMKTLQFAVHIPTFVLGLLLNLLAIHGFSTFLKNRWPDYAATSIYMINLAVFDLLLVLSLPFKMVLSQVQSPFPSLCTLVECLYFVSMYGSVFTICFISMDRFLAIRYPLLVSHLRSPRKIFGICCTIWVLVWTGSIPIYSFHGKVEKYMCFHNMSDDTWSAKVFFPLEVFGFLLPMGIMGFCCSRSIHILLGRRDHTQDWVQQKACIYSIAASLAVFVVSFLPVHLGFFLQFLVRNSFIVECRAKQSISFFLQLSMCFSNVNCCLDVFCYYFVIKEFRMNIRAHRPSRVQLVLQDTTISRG

IC50 [1] | EC50 (Hexokinase-1) | EC50 (Hexokinase HKDC1) | EC50 [2] | Compound | IC50 [3] | EC50 [4] | IC50 (Ephrin type-A receptor 4) | IC50 [5]
< 0.4 µM (not active) | 13.6 µM (active) | 11.7 µM (active) | 1.66 µM (active) | O=S(=O)(NC1c2cccc3cccc(c23)C1N1CCNCC1)c1ccccc1 (stereo not drawn) |  |  |  | 
 |  |  |  | CCC(C)N1C(=O)/C(=C/c2c(NCCCOC(C)C)nc3c(C)cccn3c2=O)SC1=S (stereo not drawn) | > 80 µM (inactive) | 0.532 µM (active) | 9.88 µM (active) | > 20 µM (inactive)
